This is an account of results in patent US8927545B2, “Inhibiting Eph B-3 kinase” (Duke University, priority 2009, dated 2015).

In test [1] the target is T1, recombinant human EphB3 kinase (Homo sapiens, UniProt P54753).
T1 sequence (P54753 633-896 limits assumed): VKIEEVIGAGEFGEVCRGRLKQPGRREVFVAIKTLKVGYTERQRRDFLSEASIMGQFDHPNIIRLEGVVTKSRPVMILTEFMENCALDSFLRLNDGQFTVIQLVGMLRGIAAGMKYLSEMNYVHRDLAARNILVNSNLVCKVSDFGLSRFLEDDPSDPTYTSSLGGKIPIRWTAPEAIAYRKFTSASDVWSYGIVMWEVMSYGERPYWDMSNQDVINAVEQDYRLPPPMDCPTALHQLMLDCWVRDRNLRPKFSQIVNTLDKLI
As to the kind of experiment: IC50 for inhibiting EphB3 phosphorylation of the BTK peptide (33P radiometric assay, assay of Examples 1-6). To be noted: for IC50: inhibiting EphB3 phosphorylation of the BTK peptide (SEQ ID NO: 4); for EphB3 tyrosine kinase inhibitor activity (in words): inhibition of EphB3 phosphorylation of the BTK peptide. The class given is biochemical.

Test [2] deals with panel of tumor cell lines. Description: Dose-response against a panel of tumor cell lines (SRB, % growth). It is filed as cell-based, human. To be noted: leukemia, non-small cell lung, colon, CNS, melanoma, ovarian, renal, prostate, breast cancer lines; FIG. 8(A)-(I). On the procedure: The y-axis depicts the % growth and the x-axis depicts the compound concentration. The legends below each graph refer to the different tumor cell lines used. […]
The human tumor cell lines of the cancer screening panel were grown in RPMI 1640 medium containing 5% fetal bovine serum and 2 mM L-glutamine. For a typical screening experiment, cells were inoculated into 96 well microtiter plates in 100 μL at plating densities ranging from 5,000 to 40,000 cells/well depending on the doubling time of individual cell lines. After cell inoculation, the microtiter plates were incubated at 37° C., 5% CO2, 95% air and 100% relative humidity for 24 hours prior to addition of experimental drugs. […]
Following drug addition, the plates were incubated for an additional 48 h at 37° C., 5% CO2, 95% air, and 100% relative humidity. […] Bound stain was subsequently solubilized with 10 mM trizma base, and the absorbance is read on an automated plate reader at a wavelength of 515 nm. […] Using the seven absorbance measurements [time zero, (Tz), control growth, (C), and test growth in the presence of drug at the five concentration levels (Ti)], the percentage growth was calculated at each of the drug concentrations levels. Percentage growth inhibition was calculated as: [(Ti−Tz)/(C−Tz)]×100 for concentrations for which Ti>/=Tz [(Ti−Tz)/Tz]×100 for concentrations for which Ti<Tz. […]

The subject of test [3] is Animal Model for Stroke (ischemia). Description: Infarct volume in animal model for stroke (2 h artery occlusion, compound ICV, TTC staining). The class given is in vivo, Sprague-Dawley rats. To be noted: different doses administered ICV; FIG. 6(E), FIG. 7(A).
Test [4] has the same test system. As to the kind of experiment: Neurological score / neurological deficit after ischemic injury. To be noted: rated between 0 (unaffected) and 4 (worst); different doses; FIG. 7(B).
Test [5] concerns the target T2, recombinant human EphB3 kinase (Homo sapiens, UniProt P54753).
T2 sequence (P54753 585-998): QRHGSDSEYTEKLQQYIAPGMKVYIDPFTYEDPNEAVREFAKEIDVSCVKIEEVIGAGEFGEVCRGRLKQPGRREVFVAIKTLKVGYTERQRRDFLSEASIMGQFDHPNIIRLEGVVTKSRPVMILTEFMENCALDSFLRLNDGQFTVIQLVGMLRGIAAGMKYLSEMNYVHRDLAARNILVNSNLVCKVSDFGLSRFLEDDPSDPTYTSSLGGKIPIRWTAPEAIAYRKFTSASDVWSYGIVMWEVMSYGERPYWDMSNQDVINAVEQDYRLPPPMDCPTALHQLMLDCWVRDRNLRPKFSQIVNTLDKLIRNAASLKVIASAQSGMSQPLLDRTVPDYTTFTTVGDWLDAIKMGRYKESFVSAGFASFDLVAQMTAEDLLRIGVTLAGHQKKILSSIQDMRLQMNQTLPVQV
As to the kind of experiment: HTRF assay of BTK substrate phosphorylation by EphB3 kinase (known kinase inhibitors).

The target in a further test is T3, recombinant EphB3 (Homo sapiens, UniProt P54753).
T3 sequence (P54753 34-998): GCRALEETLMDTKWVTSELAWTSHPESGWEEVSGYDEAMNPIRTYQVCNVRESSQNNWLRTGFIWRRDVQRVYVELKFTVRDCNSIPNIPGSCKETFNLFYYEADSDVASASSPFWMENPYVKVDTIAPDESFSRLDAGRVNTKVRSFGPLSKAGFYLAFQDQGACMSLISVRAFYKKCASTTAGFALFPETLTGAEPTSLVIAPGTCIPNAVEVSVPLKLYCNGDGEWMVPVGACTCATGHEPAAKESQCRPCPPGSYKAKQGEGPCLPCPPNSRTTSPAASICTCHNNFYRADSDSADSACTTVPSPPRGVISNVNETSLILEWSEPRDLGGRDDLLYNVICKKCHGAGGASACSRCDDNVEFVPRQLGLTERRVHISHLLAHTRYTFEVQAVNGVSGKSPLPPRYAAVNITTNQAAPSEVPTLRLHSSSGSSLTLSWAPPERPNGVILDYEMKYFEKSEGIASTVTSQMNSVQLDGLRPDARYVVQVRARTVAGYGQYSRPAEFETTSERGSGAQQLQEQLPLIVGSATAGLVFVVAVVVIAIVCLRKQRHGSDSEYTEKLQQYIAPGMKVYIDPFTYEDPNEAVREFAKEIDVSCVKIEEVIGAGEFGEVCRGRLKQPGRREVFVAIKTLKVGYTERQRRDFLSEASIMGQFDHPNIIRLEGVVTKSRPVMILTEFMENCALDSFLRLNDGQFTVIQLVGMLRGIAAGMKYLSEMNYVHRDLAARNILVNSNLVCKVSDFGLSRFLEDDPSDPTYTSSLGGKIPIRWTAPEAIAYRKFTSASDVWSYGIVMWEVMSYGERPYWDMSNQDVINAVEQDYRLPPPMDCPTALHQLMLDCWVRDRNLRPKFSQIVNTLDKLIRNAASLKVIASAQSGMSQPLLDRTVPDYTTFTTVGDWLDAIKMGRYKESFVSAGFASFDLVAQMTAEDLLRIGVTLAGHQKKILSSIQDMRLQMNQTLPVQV
To be noted: published data, scintillation proximity assay, different substrate; cited from earlier work. In general terms: Scintillation proximity formats need no separation of bound from free tracer.

The mark [6] stands for this setting: Table 1 pyrazolo[1,5-a]pyridine compounds.

“Also recorded” adds a separate entry of the source.

In the case of `COc1ccccc1NC(=O)c1cnn2ccccc12` [Compound 187605], the IC50 in test [1] (setting [6]) is more than 20 µM. In addition, the “EphB3 tyrosine kinase inhibitor activity (in words)” value in test [1] is recorded as “little or no inhibition”.

With `O=C(Nc1ccccc1Cl)c1cnc2ccc(C3CCNCC3)cn12` [Compound 211904, N-(2-chlorophenyl)-6-(piperidin-4-yl)imidazo[1,2-a]pyridine-3-carboxamide], the “% growth of tumor cell lines” value in test [2] is “inhibited”. For the same molecule, in test [3], the “Infarct volume at different compound doses” value is recorded as “dose-dependent decrease in infarct volume”. Besides, in test [4], the Neurological deficit result is given as “dose-dependent neuroprotection in behavior”.

Consider `O=C(Nc1ccccc1Cl)c1ccnc2ccccc12` [Compound 187611], for which the IC50 in test [1] (Table 2 candidate compounds) was more than 20 µM.

As for `O=C(Nc1ccccc1Cl)c1cnn2ccc(N3CCCC3)cc12` [Compound 194727, N-(2-chlorophenyl)-5-(pyrrolidin-1-yl)pyrazolo[1,5-a]pyridine-3-carboxamide], the concentration for half-maximal inhibition (IC50) in test [1] (setting [6]) is less than 0.3 µM.

With `CN[C@@H]1C[C@H]2O[C@@](C)([C@@H]1OC)n1c3ccccc3c3c4c(c5c6ccccc6n2c5c31)C(=O)NC4` [Staurosporine, staurosporine], in test [5] (read-out: inhibition of phosphorylation), the inhibition at 100 µM was determined as 50%.

As to `Cc1cccc2c(C(=O)Nc3ccccc3Cl)cnn12` [Compound 193694], the 50% inhibitory concentration (IC50) in test [1] (setting [6]) is more than 20 µM.

For the molecule `O=C(Nc1cccc(Cl)c1)c1cnn2ccccc12` [Compound 187600], the 50% inhibitory concentration (IC50) in test [1] (setting [6]) is more than 20 µM. Also, in test [1], the “EphB3 tyrosine kinase inhibitor activity (in words)” value was “little or no inhibition”.

Take `O=C(Nc1ccc(Cl)cc1)c1cnn2ccccc12` [Compound 187601]: in test [1] (setting [6]), the half-inhibitory concentration (IC50) was more than 20 µM. In addition, the “EphB3 tyrosine kinase inhibitor activity (in words)” value in test [1] is recorded as “little or no inhibition”.

With `O=C(Nc1ccccc1Cl)c1cnn2ccccc12` [Compound 1], in test [1], the “EphB3 tyrosine kinase inhibitor activity (in words)” value is “showed EphB3 tyrosine kinase inhibitor activity”.

Regarding `Cn1cc(C(=O)Nc2ccccc2Cl)c2ccccc21` [Compound 187609], in test [1] (Table 2 candidate compounds), the half-maximal inhibitory concentration (IC50) was more than 20 µM.

As to `O=C(Nc1ccccc1Cl)c1cnn2cccnc12` [Compound 193695], the IC50 in test [1] (Table 2 candidate compounds) was more than 20 µM.

`O=C(NCc1ccccc1Cl)c1cnn2ccccc12` [Compound 187604]: the IC50 in test [1] (setting [6]) was more than 20 µM. The “EphB3 tyrosine kinase inhibitor activity (in words)” value in test [1] was “little or no inhibition; also recorded: inactive”.

`O=C(Nc1ccccc1Cl)c1cnn2ncccc12` [Compound 193697]: the half-maximal inhibitory concentration (IC50) in test [1] (Table 2 candidate compounds) was more than 20 µM.

In the case of `CC(C)(C)n1nc(-c2ccc(Cl)cc2)c2c(N)ncnc21` [PP2], the IC50 is 0.8 µM at recombinant EphB3 and 1.7 µM in test [5] (12.5 nM EphB3, 30 min preincubation at RT, […] ATP, 600 nM BTK for 1 hr). For the same molecule, in test [5] (at 10 μM, HTS positive control), the inhibition was determined as 80%.

In the case of `CN(C(=O)c1cnn2ccccc12)c1ccccc1Cl` [Compound 187597], in test [1] (setting [6]), the 50% inhibitory concentration (IC50) was more than 20 µM. The “EphB3 tyrosine kinase inhibitor activity (in words)” value in test [1] was “inactive”.

For the molecule `O=C(Nc1ccccc1Cl)c1cnc2ccc(Br)cn12` [Compound 209925, 6-bromo-N-(2-chlorophenyl)imidazo[1,2-a]pyridine-3-carboxamide], in test [1] (Table 3 imidazo[1,2-a]pyridine compounds), the IC50 was less than 0.2 µM.

Take `O=C(Nc1ccccc1)c1cnn2ccccc12` [Compound 187598]: the IC50 in test [1] (setting [6]) is more than 20 µM. Also, in test [1], the “EphB3 tyrosine kinase inhibitor activity (in words)” value was “little or no inhibition”.

As to `O=C(Nc1ccccc1Cl)c1noc2ccccc12` [Compound 193671], the IC50 in test [1] (Table 2 candidate compounds) is more than 20 µM.

Usually IC50 stands for the midpoint of a concentration-inhibition curve. The inhibition is the drop in the measured response relative to a control, in per cent.
